From PMC3914206 come the findings set out here.

The target of assay [1] is T1, panel of 442 kinases (Homo sapiens, UniProt O14976).
T1 construct: purchased KINOMEscan
T1 sequence (O14976 1-1311): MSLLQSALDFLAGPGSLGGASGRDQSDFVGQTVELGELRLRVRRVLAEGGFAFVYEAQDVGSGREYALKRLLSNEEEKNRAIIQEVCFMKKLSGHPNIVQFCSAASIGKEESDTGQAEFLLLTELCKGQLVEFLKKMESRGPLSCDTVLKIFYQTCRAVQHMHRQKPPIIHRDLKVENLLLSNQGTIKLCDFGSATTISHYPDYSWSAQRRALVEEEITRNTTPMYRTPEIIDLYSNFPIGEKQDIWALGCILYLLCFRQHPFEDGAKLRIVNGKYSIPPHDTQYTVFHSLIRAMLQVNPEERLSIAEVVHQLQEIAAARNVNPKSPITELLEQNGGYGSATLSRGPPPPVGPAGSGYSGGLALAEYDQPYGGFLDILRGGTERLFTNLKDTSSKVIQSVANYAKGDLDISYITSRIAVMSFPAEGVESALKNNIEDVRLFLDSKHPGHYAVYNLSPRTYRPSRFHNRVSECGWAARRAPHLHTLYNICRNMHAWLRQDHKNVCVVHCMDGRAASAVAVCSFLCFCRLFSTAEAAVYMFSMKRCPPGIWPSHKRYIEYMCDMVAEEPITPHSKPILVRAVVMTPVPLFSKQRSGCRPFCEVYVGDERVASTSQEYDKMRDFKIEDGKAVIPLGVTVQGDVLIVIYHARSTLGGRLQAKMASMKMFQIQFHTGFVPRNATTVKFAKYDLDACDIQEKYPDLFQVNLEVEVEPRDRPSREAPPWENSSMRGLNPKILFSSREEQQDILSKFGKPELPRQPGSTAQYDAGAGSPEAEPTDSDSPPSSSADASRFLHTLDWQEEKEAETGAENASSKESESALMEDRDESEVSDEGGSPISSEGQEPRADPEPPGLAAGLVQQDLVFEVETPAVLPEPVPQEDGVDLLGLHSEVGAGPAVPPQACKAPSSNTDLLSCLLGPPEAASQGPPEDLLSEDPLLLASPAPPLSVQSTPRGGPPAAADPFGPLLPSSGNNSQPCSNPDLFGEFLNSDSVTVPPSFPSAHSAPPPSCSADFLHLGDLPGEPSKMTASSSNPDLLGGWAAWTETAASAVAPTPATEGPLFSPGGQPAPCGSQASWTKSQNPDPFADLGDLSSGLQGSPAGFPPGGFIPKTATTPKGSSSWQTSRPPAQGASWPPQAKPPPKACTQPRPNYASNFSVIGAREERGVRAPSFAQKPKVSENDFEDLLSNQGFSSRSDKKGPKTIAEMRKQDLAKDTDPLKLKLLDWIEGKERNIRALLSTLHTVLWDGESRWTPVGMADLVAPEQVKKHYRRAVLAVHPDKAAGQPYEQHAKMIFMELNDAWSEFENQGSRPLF
The assay is classed as binding. Particulars: Compound Concentration 10 µM. From the text:
(§1) We assessed the selectivity of members of this scaffold using the KINOMEscan methodology across a near comprehensive panel of 442 kinases [[18,27]].

Assay [2] concerns the target T2, panel of 442 kinases (Homo sapiens, UniProt Q00532).
T2 construct: purchased KINOMEscan
The class given is binding. The note with it: Compound Concentration 10 µM.
Description: as §1

T2 sequence (Q00532 whole entry): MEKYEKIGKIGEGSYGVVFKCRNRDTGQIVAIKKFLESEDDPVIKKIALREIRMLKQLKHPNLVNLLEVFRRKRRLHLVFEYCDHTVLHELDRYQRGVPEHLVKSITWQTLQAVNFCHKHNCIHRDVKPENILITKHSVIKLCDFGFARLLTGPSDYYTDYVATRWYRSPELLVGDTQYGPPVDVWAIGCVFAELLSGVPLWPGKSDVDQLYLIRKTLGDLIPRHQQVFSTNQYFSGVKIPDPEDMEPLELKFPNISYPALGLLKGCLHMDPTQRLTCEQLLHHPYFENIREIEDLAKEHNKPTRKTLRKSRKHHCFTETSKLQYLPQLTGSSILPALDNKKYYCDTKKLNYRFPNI

In the case of `COc1cc(C(=O)N2CCC(N3CCN(C)CC3)CC2)ccc1Nc1ncc2c(n1)N(C)c1ccccc1C(=O)N2C` [15 (LRRK2-IN-1)], the “KINOMEscan: GAK” value on panel of 442 kinases [1] came out at 16. Also, the “KINOMEscan: CDKL1” value at panel of 442 kinases [2] came out at 78. Consider `COc1cc(C(=O)N2CCC(N3CCN(C)CC3)CC2)ccc1Nc1ncc2c(n1)N1CCc3cccc(c31)C(=O)N2C` [Compound 24], for which the “KINOMEscan: GAK” value on panel of 442 kinases [1] stood at 19. On to `COc1cc(C(=O)N2CCC(N3CCN(C)CC3)CC2)ccc1Nc1ncc2c(n1)N(C1CCCC1)c1ccccc1C(=O)N2C` [Compound 25, 11-cyclopentyl-2-((2-methoxy-4-(4-(4-methylpiperazin-1-yl)piperidine-1-carbonyl)phenyl)amino)-5-methyl-5H-benzo[e]pyrimido[5,4-b][1,4]diazepin-6(11H)-one], for which the “KINOMEscan: GAK” value at panel of 442 kinases [1] turned out to be 82. The “KINOMEscan: CDKL1” value at panel of 442 kinases [2] was determined as 100. In the same order, the values of `CCOc1cc(C(=O)N2CCC(N3CCN(C)CC3)CC2)ccc1Nc1ncc2c(n1)N(C1CCCC1)c1ccccc1C(=O)N2C` [Compound 26] are 100 and 86.
